Experimental findings from patent US8652540B2, “Method of using rhein for treating fibrotic conditions and tumors” (priority 2012, dated 2014) are described below.

Marks after values point to notes of the source that are not given here.

Data set [1] has as its system LTC-14 cells. Format: cell-based. How it is done: LTC-14 cells were cultured at 37° C. under a humidified condition of 95% air and 5% CO2 in IMDM supplemented with 10% fetal bovine serum (FBS). Cells used in all the experiment were among passages 9 to 22. LTC-14 cells were seeded at a density of 1×10^4/well in a 96-well plate, and incubated with different concentrations of Rhein (dissolved in DMSO) for 24 hours. MTT reagent was added to the cells at the end of the 24-hour treatment period. After a 3-hour reaction time, MTT products were dissolved in DMSO and OD at 570 nm was taken.

The nature of data set [2]: Body weights and tolerability of mice given Rhein orally. Format: in vivo, C57BL6 mice. How it is done:
(§1) C57BL6 mice at age of 6 to 8 weeks with body weight in the range of 20 to 24 grams were used in these experiments. Mice were randomly assigned into 5 groups. Control group received saline injections only; Rhein group was fed with Rhein (≧98% pure) dissolved in 0.5% sodium carboxymethyl cellulose (Sigma, USA) in a single dose of 0.4 mL at 50 mg/kg/day for 6 weeks; Cerulein group received 6 cerulein injections at 50 μg/kg three times a week for 6 weeks; Cer+Rh 6w group received cerulein injections same as Cerulein group plus oral gavage of a single dose of Rhein at 50 mg/kg/day from the first day of experimental period till the end in a total of 6 weeks; Cer+Rh 3w group received cerulein injections same as Cerulein group and Cer+Rh 6w group, but was given with Rhein at 50 mg/kg/day starting the first day of week 4 till the end of experiment in a total of 3 weeks (n=6/group). Upon scarification, pancreata were immediately removed, weighed, trimmed from fat and fixed in 4% paraformaldehyde-phosphate buffered saline (PBS) overnight at 4° C. Samples were then processed, embedded in paraffin wax, sectioned and subjected to Hematoxylin-eosin (H & E) staining or Sirius Red staining Levels of TNF-α· in animal serum samples were determined using commercial ELISA kits. Proteins extracted from pancreatic tissues were subjected to Western blotting analyses.

The test system of data set [3] is α-SMA. Description: Immunofluorescence assay for α-SMA in TGF-β-stimulated LTC-14 cells. Type of data set: cell-based, rat. Particulars: TGF-β 5 ng/mL, Rhein 10 μM. How it is done: To study the effect of Rhein on TGF-β induced expression of fibrotic filament formation, LTC-14 cells were grown on poly-L-lysine coated glass coverslips at a density of 1×10^5 in a 24-well plate pre-incubated with TGF-β (5 ng/mL) for 24 hours before the treatment with or without Rhein (10 μM). At the time of harvest, cells were subjected to immunofluorescence assay for α-SMA immunoreactivities.

A further data set concerns TNF-α. Kind of data set: Serum TNF-α by ELISA, cerulein-induced chronic pancreatitis mice. Type of data set: in vivo, C57BL6 mice. How it is done:
as §1
A general note: In an ELISA, binding on a coated surface is turned into a signal by an enzyme label.

For a further data set, the system named is Col1-α1. Kind of data set: Real-time PCR, TGF-β-stimulated LTC-14 cells: Col1-α1. The note with it: Rhein at 1, 10 and 100 μM; TGF-β 5 ng/mL. Format: cell-based, rat. An excerpt:
(§2) The synthesized cDNA template was applied to amplifications with rat-specific primers for Tgf-β1, Acta2, Col1-α1 and Mmp2 in a real-time PCR sequencer. Expression of the gene of interest was expressed as a Ct value and normalized to the internal control Gapdh. […] After amplifications by real-time PCR, expression of the gene of interest was expressed as a Ct value and normalized to the internal control Gapdh.
(In qPCR the cycle at which signal appears reflects the starting amount.)

For data set [4], the system named is LTC-14 cells. Kind of data set: TGF-β induced transformation of PSCs to myofibroblast-like cells (light microscope). Type of data set: cell-based, rat. The note with it: TGF-β 5 ng/mL, Rhein 10 μM. How it is done:
To study the effect of Rhein on TGF-β induced transformation of PSCs to myofibroblast-like cells, LTC-14 cells were grown at a density of 1×10^5 in a 24-well plate, pre-incubated with TGF-β (5 ng/mL) for 24 hours and treated with or without Rhein (10 μM). At the time of harvest, cells were examined with morphological alterations under a light microscope.

For a further data set, the system named is Acta2. Kind of data set: Real-time PCR, TGF-β-stimulated LTC-14 cells: Acta2. Format: cell-based, rat. The note with it: Rhein at 1, 10 and 100 μM; TGF-β 5 ng/mL.
Text: as §2

Another data set concerns collagen. Kind of data set: Sirius Red staining of collagenous proteins in pancreas of CP mice. Type of data set: in vivo, C57BL6 mice. How it is done: as §1
A further data set deals with Fn1. Kind of data set: Expression of Fn1 in TGF-β-stimulated LTC-14 cells. Format: cell-based, rat. The note with it: recombinant TGF-β.
In data set [5] the test system is α-SMA. Kind of data set: α-SMA expression in pancreatic tissues (immunofluorescence, Western blotting), cerulein-treated mice. Type of data set: in vivo, C57BL6 mice. Particulars: Rhein oral 50 mg/kg/day for 6 weeks. How it is done:
as §1
A general note: A western blot detects proteins with antibodies after separation by electrophoresis.

Another data set has as its system Tgf-β1. Kind of data set: Real-time PCR, TGF-β-stimulated LTC-14 cells: Tgf-β1. Type of data set: cell-based, rat. Particulars: Rhein at 1, 10 and 100 μM; TGF-β 5 ng/mL.
Text: as §2

The subject of another data set is fibronectin 1 (FN1). Description: Western blotting of fibronectin in pancreatic tissues of CP mice. Type of data set: in vivo, C57BL6 mice. Particulars: CP mice treated with Rhein vs non-Rhein-treated CP mice. How it is done: as §1
A short description of data set [6]: Pancreatic weight and H&E histology, cerulein-induced chronic pancreatitis mice. Type of data set: in vivo, C57BL6 mice. How it is done:
as §1

The mark [7] stands for this setting: Rhein group: 50 mg/kg/day oral for 6 weeks, no cerulein.

In the case of `O=C(O)c1cc(O)c2c(c1)C(=O)c1cccc(O)c1C2=O` [Rhein, 9,10-Dihydro-4,5-dihydroxy-9,10-dioxo-2-anthracenecarboxylic acid], the PSC proliferation entry with LTC-14 cells [1] (in vitro, dose-dependent) is “suppress PSC proliferation”. Besides, the “LD50 (cytotoxicity)” value in the data set with LTC-14 cells [1] (rat, 24 h) was “approximately 130 μM”. Moreover, the “Body wt (g), Mean” value in data set [2] (Cer + Rh 3 wk: cerulein injections plus Rhein 50 mg/kg/day from week 4, 3 weeks) was 24.07* g; in data set [2] (Cer + Rh 6 wk: cerulein injections plus Rhein 50 mg/kg/day oral gavage for 6 weeks) it was 23.98* g; in data set [2] (setting [7]) it was 26.10 g. In data set [2] (oral administration, animal study), the adverse effects entry is reported as “no adverse effects”. Further, the “α-SMA expression (immunofluorescent staining)” value in the data set on α-SMA [3] is recorded as “remarkably suppresses”. Besides, the “TNF-α (ng/mL), Mean” value in the data set with TNF-α (Cer + Rh 3 wk: cerulein plus Rhein 50 mg/kg/day from week 4, 3 weeks) was 32.52# ng/mL; in the data set with TNF-α (Cer + Rh 6 wk: cerulein plus Rhein 50 mg/kg/day for 6 weeks), 31.18# ng/mL; with TNF-α (setting [7]), 14.43 ng/mL. Besides, the “TGF-β-elevated mRNA expression level of Col1-α1” value in the data set on Col1-α1 is on record as “significantly repressed”. Also, the “transformation of LTC-14 cells into myofibroblast-like phenotype” value in the data set on LTC-14 cells [4] is “represses the transformation”. Moreover, the “TGF-β-elevated mRNA expression level of Acta2” value in the data set with Acta2 is reported as “significantly repressed”. In addition, the “amounts of collagenous protein” value in the data set with collagen is reported as “notably reduced”. The “TGF-β-stimulated expression level of Fn1” value in the data set with Fn1 is “suppresses”. Also, in the data set on α-SMA [5], the “expression of α-SMA in the pancreatic tissues” value was “significantly inhibits”. Further, the “TGF-β-elevated mRNA expression level of Tgf-β1” value in the data set on Tgf-β1 is “significantly repressed”. Further, in the data set on fibronectin 1 (FN1), the “protein expression levels of fibronectin” value is recorded as “remarkably decreased”. Also, in data set [6] (CP mice, Rhein oral 50 mg/kg/day, H&E), the “histology of pancreatic tissues (acinar loss, lymphocyte infiltration, fibrosis)” value is “less acinar loss (FIG. 1), lymphocyte infiltration and fibrosis”. Also, the pancreatic weight entry in data set [6] (cerulein-induced pancreatitis mice, vs Cerulein group) is given as “significant restoration of pancreatic weight”.
